Where a name gives a salt, the structure may show the parent alone. Read-outs that look alike come from different tables or passages of the source.
How the values were obtained:
FLT3 = target: T1, FLT3 (Homo sapiens, UniProt P36888); experiment: Binding constant (Kd) measurement, phage-displayed kinase competition binding assay, FLT3
T1 construct: made in house
T1 sequence (P36888 27-993): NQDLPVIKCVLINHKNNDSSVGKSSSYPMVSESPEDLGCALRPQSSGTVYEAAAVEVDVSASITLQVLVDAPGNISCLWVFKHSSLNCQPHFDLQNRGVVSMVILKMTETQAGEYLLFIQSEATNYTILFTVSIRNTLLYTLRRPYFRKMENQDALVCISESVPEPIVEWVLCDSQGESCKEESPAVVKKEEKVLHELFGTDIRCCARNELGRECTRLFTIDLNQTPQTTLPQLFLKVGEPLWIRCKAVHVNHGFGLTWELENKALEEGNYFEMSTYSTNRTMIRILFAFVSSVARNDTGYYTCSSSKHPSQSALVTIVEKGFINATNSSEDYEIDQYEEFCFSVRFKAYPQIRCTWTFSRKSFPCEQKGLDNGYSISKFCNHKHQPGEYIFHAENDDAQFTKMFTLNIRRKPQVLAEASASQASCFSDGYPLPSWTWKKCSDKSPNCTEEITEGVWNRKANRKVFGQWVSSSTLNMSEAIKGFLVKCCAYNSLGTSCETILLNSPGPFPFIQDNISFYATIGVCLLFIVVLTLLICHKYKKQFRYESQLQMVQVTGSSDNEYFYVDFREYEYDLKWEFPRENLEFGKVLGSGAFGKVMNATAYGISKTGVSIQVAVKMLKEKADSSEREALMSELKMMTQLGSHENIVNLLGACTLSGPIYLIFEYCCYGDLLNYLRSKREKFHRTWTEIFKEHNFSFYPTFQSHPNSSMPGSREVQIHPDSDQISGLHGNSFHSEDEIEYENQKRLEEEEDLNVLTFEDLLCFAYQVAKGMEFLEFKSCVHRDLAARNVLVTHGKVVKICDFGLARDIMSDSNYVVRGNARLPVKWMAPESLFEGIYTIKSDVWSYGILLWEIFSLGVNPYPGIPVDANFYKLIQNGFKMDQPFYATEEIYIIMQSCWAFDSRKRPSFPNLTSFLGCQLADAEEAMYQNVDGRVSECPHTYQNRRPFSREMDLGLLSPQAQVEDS
Method in brief: (§1)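 Competition binding used human kinases fused to T7 phage and immobilized ATP-site ligands. Compound binding blocks kinase capture on the solid support. Bound phage-kinase was quantified by plaque assay or qPCR of the phage genome to give Kd.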

MV4-11 cells = experiment: Cellular proliferation assay (MTS), MV4-11; type: cell-based; conditions: Homo sapiens
Method in brief: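 FLT3-ITD MV4-11 cells, 10,000/well in DMEM with 0.5% serum, exposed to compounds 3 days at 37 °C, 5% CO2. Viability read colorimetrically after 2 h MTS tetrazolium reduction; WT-FLT3 RS4-11 cells (20,000/well, RPMI 0.5% serum, 2 days) serve as control.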

KIT = target: T2, KIT (Homo sapiens, UniProt P10721); experiment: Binding constant (Kd) measurement, phage-displayed kinase competition binding assay, KIT
T2 construct: made in house
Method in brief: as §1

CSF1R = target: T3, CSF1R (Homo sapiens, UniProt P07333); experiment: Binding constant (Kd) measurement, phage-displayed kinase competition binding assay, CSF1R
T3 construct: made in house
Method in brief: as §1

[1] = MV4-11 cells, 72 hour incubation, MTS, read-out: Cellular Assay MV-proliferation IC50
[2] = read-out: Binding Assay FLT3 Kd

T2 sequence (P10721 26-976): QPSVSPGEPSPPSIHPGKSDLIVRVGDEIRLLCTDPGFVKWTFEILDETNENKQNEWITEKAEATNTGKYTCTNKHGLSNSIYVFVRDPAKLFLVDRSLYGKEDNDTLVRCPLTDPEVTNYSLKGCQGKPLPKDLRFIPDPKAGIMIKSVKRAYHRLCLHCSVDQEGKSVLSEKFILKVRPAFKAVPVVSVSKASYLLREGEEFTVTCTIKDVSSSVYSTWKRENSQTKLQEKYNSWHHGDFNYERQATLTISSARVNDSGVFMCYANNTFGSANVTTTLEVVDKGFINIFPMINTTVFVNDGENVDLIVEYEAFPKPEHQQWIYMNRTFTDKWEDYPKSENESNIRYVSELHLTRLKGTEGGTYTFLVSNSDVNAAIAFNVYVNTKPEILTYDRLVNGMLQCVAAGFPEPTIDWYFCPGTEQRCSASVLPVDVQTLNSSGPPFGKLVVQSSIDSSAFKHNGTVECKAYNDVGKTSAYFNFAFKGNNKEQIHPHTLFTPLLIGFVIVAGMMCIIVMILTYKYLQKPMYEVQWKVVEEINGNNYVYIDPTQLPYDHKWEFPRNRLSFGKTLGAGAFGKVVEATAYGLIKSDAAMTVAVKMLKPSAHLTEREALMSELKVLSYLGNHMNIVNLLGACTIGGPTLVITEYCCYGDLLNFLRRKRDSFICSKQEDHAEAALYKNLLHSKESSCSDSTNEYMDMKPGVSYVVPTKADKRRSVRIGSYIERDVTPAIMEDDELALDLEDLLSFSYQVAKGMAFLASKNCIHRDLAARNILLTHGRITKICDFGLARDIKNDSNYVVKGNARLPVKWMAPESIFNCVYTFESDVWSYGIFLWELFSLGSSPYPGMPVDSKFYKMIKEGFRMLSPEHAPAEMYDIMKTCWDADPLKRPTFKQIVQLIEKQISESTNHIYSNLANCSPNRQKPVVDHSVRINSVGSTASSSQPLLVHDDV
T3 sequence (P07333 20-972): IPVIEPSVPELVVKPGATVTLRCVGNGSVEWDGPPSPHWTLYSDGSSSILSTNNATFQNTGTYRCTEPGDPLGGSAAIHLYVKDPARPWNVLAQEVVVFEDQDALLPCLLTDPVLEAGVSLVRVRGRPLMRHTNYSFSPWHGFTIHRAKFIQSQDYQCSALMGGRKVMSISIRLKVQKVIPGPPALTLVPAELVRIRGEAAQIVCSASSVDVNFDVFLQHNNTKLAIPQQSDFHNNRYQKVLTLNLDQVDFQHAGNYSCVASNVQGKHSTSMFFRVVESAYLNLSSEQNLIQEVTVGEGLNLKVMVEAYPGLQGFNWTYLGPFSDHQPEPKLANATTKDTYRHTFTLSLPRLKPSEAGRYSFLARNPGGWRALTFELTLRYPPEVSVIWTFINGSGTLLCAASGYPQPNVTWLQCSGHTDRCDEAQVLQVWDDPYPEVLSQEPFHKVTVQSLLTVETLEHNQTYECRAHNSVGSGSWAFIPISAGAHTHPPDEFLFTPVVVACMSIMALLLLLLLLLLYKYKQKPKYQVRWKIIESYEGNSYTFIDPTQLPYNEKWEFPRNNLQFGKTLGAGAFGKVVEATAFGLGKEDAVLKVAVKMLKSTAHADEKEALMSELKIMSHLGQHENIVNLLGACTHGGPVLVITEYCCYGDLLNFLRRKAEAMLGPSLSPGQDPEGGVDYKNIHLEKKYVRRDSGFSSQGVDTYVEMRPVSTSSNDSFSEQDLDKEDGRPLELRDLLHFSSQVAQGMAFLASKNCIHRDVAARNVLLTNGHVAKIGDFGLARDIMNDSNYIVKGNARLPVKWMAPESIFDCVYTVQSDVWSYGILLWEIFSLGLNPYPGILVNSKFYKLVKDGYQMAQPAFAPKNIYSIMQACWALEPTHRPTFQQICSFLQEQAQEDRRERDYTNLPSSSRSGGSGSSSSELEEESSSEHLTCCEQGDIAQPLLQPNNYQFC

Structure (SMILES) | IC50 (MV4-11 cells; [1]) [nM] | Kd (KIT) [nM] | Kd (CSF1R) [nM] | Kd (FLT3; [2]) [nM] | Kd (FLT3) [nM] | IC50 (MV4-11 cells; MV4-11, 72 h, read-out: Cellular Assay MV-proliferation IC50 (nM)) [nM]
CC(C)(C)c1cc(NC(=O)Nc2ccc(-c3cn4c(n3)sc3cc(CN5CCOCC5)ccc34)cc2)no1 [Compound D8, 1-(5-tert-Butyl-isoxazol-3-yl)-3-[4-(7-morpholin-4-ylmethyl-imidazo[2,1-b][1,3]benzothiazol-2-yl)-phenyl]-urea hydrochloride] | < 10 | < 10 | 10 to 100 |  | < 10 | 
CCN1CCN(Cc2ccc3c(c2)sc2nc(-c4ccc(NC(=O)Nc5cc(C(C)(C)C)on5)cc4)cn23)CC1 [Compound D9, 1-(5-tert-Butyl-isoxazol-3-yl)-3-{4-[7-(4-ethyl-piperazin-1-ylmethyl)-imidazo[2,1-b][1,3]benzothiazol-2-yl]-phenyl}-urea hydrochloride] |  | < 10 | 10 to 100 | < 10 |  | < 10
CC(C)(C)c1cc(NC(=O)Nc2ccc(-c3cn4c(n3)sc3cc(CN5CCCCC5)ccc34)cc2)no1 [Compound D10, 1-(5-tert-Butyl-isoxazol-3-yl)-3-[4-(7-piperidin-1-ylmethyl-imidazo[2,1-b][1,3]benzothiazol-2-yl)-phenyl]urea hydrochloride] | < 10 | < 10 | 10 to 100 |  | < 10 | 
O=C(CCc1ccc2c(c1)sc1nc(-c3ccc(NC(=O)N4CCOCC4)cc3)cn12)N1CCOCC1 [Compound E1, Morpholine-4-carboxylic acid {4-[7-(3-morpholin-4-yl-3-oxo-propyl)-benzo[d]imidazo[21-b]thiazol-2-yl]-phenyl}amide] | > 100 | > 1000 | > 1000 | 100 to 1000 |  | 
O=C(Cc1noc2ccccc12)Nc1ccc(-c2cn3c(n2)sc2cc(OCCN4CCOCC4)ccc23)cc1 [Compound E2, 2-benzo[d]isoxazol-3-yl-N-{4-[7-(2-morpholin-4-yl-ethoxy)-benzo[d]imidazo[2,1-b]thiazol-2-yl]-phenyl}-acetamide] | < 10 | 10 to 100 | > 1000 | < 10 |  | 
Cc1nc(C(F)(F)F)c(C(=O)Nc2ccc(-c3cn4c(n3)sc3cc(OCCN5CCOCC5)ccc34)cc2)s1 [Compound E3, 2-methyl-4-trifluoromethyl-thiazole-5-carboxylic acid {4-[7-(2-morpholin-4-yl-ethoxy)-benzo[d]imidazo[2,1-b]thiazol-2-yl]-phenyl}-amide] | > 100 | > 1000 | > 1000 | > 1000 |  | 
Cc1nc(-c2ccc(Cl)cc2)sc1C(=O)Nc1ccc(-c2cn3c(n2)sc2cc(OCCN4CCOCC4)ccc23)cc1 [Compound E4, 2-(4-chloro-phenyl)-4-methyl-thiazole-5-carboxylic acid {4-[7-(2-morpholin-4-yl-ethoxy)-benzo[d]imidazo[2,1-b]thiazol-2-yl]-phenyl}-amide] | 10 to 100 | 100 to 1000 | 100 to 1000 | 10 to 100 |  | 

Continued, in another order:

IC50 (MV4-11 cells; [1]) [nM] | Kd (KIT) [nM] | Kd (CSF1R) [nM] | Kd (FLT3; [2]) [nM] | Structure (SMILES) | Kd (FLT3) [nM] | IC50 (MV4-11 cells; MV4-11, 72 h, read-out: Cellular Assay MV-proliferation IC50 (nM)) [nM]
< 10 | < 10 | 100 to 1000 | < 10 | O=C(Nc1ccc(-c2cn3c(n2)sc2cc(OCCN4CCOCC4)ccc23)cc1)Nc1ccc2c(c1)OCCO2 [Compound F1, 1-(2,3-Dihydro-benzo[1,4]dioxin-6-yl)-3-{4-[7-(2-morpholin-4-yl-ethoxy)-benzo[d]imidazo[2,1-b]thiazol-2-yl]-phenyl}-urea] |  | 
< 10 | < 10 | 10 to 100 | < 10 | CC(C)(C)c1ccc(NC(=O)Nc2ccc(-c3cn4c(n3)sc3cc(OCCN5CCOCC5)ccc34)cc2)cc1 [Compound F2, 1-(4-tert-Butyl-phenyl)-3-{4-[7-(2-morpholin-4-yl-ethoxy)-benzo[d]imidazo[2,1-b]thiazol-2-yl]-phenyl}-urea] |  | 
< 10 | 10 to 100 | 100 to 1000 | < 10 | Cc1nc2cc(NC(=O)Nc3ccc(-c4cn5c(n4)sc4cc(OCCN6CCOCC6)ccc45)cc3)ccc2s1 [Compound F8, 1-(2-methyl-benzothiazol-5-yl)-3-{4-[7-(2-morpholin-4-yl-ethoxy)-benzo[d]imidazo[2,1-b]thiazol-2-yl]-phenyl}-urea] |  | 

— patent publication US8921546B2, “Imidazolothiazole compounds for the treatment of disease” (Ambit Biosciences Corporation, priority 2006, dated 2014)
